Data set [1] is described as follows: Antiproliferative activity against human ML-1 cells expressing wild type FLT3 assessed as reduction in cell viability measured after 72 hrs by MTS assay. The class given is functional, cell-based. The following applies: ML1, 72 h. (In general: Tetrazolium assays rely on reduction of a dye to a coloured formazan, in cell work by metabolically active cells.)
For a further data set, the system named is HL-60. Put plainly: Antiproliferative activity against human HL-60 cells expressing wild type FLT3 assessed as reduction in cell viability measured after 72 hrs by MTS assay. The class given is functional, cell-based. Particulars: HL-60, 72 h.
Data set [2] in a line: Antiproliferative activity against mouse BaF3 cells expressing wild type FLT3 assessed as reduction in cell viability measured after 72 hrs by MTS assay. The data set is classed as toxicity, cell-based.
The subject of the next data set is MOLM-13. Put plainly: Antiproliferative activity against human MOLM-13 cells harboring FLT3-ITD mutant assessed as reduction in cell viability measured after 72 hrs by MTS assay. The class given is functional, cell-based. The following applies: MOLM-13, 72 h.
Data set [3] can be described thus: Antiproliferative activity against mouse Ba/F3 FLT3-ITD cells assessed as reduction in cell viability measured after 72 hrs by MTS assay. The data set is classed as functional, cell-based.
Another data set deals with MV4-11. Put plainly: Antiproliferative activity against human MV4-11 cells harboring FLT3-ITD mutant assessed as reduction in cell viability measured after 72 hrs ny MTS assay. The class given is functional, cell-based. The following applies: MV4-11, 72 h.
In data set [4] the target is Serine/threonine-protein kinase B-raf (Homo sapiens, UniProt P15056). Kind of data set: Inhibition of BRAF (unknown origin).
Chain of Serine/threonine-protein kinase B-raf (P15056 whole entry): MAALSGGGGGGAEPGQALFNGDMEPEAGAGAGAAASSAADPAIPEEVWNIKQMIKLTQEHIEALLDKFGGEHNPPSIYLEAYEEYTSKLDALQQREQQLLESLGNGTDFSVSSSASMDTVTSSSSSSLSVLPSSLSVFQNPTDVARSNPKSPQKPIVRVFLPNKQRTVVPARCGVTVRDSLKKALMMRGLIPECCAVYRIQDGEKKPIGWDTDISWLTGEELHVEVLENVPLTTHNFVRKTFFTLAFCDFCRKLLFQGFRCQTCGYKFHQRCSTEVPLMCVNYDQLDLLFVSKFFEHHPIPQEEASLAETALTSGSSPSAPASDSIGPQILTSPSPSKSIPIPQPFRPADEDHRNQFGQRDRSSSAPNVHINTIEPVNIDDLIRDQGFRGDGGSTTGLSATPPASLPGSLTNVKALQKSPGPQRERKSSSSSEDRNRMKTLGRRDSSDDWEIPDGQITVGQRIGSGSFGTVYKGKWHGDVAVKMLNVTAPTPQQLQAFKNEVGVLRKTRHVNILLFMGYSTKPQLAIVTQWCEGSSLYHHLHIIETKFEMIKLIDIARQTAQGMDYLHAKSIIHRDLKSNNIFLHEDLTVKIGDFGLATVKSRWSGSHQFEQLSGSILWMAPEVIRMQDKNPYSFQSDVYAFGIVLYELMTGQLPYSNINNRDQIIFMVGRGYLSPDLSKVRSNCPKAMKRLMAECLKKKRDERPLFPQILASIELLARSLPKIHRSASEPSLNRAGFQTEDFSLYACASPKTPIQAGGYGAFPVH
In data set [5] the target is Fibroblast growth factor receptor 1 (Homo sapiens, UniProt P11362). Put plainly: Inhibition of FGFR1 (unknown origin).
Chain of Fibroblast growth factor receptor 1 (P11362 whole entry): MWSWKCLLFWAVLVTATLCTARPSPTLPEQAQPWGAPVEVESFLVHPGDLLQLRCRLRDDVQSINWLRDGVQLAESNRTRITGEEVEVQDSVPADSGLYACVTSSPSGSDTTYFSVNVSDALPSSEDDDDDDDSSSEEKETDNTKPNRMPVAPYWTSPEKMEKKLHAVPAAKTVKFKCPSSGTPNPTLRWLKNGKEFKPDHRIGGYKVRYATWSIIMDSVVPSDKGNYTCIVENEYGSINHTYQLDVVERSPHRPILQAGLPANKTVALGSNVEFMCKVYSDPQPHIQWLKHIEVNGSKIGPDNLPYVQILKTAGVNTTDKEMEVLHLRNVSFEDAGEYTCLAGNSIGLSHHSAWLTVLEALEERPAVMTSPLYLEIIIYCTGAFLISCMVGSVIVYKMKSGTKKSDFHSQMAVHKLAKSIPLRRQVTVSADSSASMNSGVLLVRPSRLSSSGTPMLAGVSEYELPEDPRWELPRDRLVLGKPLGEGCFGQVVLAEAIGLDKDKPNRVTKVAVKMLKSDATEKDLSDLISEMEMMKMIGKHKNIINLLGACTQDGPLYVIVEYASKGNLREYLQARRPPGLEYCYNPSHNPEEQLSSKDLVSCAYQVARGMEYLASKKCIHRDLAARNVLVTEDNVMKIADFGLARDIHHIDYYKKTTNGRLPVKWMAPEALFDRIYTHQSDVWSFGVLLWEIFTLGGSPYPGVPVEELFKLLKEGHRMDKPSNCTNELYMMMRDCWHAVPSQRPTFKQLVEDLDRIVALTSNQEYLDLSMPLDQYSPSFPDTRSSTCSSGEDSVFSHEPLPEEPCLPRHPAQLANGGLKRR
In data set [6] the target is Mast/stem cell growth factor receptor Kit (Homo sapiens, UniProt P10721). Put plainly: Inhibition of KIT (unknown origin).
Chain of Mast/stem cell growth factor receptor Kit (P10721 whole entry): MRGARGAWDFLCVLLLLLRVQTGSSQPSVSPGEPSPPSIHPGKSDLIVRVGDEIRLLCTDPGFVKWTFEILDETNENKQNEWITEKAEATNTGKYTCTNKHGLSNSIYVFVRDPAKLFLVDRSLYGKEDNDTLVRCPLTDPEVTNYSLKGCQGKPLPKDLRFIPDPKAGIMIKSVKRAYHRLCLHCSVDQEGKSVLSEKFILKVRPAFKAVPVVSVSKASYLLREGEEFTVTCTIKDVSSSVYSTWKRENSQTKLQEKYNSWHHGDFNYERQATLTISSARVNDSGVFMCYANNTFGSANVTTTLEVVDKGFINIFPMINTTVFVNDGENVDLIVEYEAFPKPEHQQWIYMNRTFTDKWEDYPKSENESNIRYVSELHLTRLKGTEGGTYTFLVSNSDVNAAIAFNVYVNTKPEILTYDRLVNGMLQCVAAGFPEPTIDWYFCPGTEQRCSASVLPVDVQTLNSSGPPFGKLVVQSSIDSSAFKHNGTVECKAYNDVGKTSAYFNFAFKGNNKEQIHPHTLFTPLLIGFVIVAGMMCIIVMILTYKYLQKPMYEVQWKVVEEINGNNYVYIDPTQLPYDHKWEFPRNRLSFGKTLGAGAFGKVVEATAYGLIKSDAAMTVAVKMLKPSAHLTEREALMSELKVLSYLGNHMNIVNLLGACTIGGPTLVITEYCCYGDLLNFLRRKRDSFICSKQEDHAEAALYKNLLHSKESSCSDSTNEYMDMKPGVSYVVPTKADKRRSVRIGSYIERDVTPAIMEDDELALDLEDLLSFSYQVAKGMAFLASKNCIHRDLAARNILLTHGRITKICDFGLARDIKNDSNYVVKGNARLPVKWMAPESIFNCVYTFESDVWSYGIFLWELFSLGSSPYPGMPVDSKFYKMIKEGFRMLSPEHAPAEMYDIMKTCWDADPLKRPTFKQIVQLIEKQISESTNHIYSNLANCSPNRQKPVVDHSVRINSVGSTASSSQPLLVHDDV
Data set [7] has as its target T1, Receptor-type tyrosine-protein kinase FLT3 (Homo sapiens, UniProt P36888).
T1 sequence (P36888 whole entry): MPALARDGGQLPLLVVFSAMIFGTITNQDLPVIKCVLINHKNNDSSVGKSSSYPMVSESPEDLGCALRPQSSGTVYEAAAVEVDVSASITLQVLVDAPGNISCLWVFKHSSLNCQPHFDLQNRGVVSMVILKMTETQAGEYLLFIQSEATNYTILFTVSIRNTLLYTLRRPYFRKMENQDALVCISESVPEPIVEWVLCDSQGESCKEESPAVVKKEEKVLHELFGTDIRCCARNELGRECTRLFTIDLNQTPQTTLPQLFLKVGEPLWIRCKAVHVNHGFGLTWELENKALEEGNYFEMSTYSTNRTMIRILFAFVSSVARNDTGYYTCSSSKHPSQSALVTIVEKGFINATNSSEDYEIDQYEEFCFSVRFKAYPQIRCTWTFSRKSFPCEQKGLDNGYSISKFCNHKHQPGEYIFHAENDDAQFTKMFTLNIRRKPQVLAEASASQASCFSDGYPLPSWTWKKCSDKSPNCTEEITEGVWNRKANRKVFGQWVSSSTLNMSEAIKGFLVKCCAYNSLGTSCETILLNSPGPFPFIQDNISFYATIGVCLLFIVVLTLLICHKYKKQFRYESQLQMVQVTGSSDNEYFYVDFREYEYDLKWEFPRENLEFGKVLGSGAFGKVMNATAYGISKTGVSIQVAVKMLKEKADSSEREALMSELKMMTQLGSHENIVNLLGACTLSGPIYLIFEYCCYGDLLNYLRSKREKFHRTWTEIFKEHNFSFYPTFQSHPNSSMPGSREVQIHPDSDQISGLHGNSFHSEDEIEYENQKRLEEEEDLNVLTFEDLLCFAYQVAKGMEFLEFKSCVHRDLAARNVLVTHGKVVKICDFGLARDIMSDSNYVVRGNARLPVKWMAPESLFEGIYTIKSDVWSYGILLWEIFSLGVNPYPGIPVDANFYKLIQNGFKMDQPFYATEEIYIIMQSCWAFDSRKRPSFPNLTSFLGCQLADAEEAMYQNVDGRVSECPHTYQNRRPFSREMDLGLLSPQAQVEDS
Put plainly: Inhibition of FLT3 (unknown origin).

In data set [8] the target is Receptor-type tyrosine-protein kinase FLT3 (Homo sapiens, UniProt P36888, ITD). Put plainly: Inhibition of FLT3-ITD mutant (unknown origin).
Data set [9] concerns the target Receptor-type tyrosine-protein kinase FLT3 (Homo sapiens) (UniProt P36888). Put plainly: Inhibition of FLT3 phosphorylation in human MV4-11 cells assessed as reduction in phosphorylated FLT3 level measured after 12 hrs by western blot analysis. The data set is classed as cell-based. A general note: A western blot detects proteins with antibodies after separation by electrophoresis.

Data set [10] addresses T2, Receptor-type tyrosine-protein kinase FLT3 (Mus musculus) (UniProt Q00342).
T2 sequence (whole entry): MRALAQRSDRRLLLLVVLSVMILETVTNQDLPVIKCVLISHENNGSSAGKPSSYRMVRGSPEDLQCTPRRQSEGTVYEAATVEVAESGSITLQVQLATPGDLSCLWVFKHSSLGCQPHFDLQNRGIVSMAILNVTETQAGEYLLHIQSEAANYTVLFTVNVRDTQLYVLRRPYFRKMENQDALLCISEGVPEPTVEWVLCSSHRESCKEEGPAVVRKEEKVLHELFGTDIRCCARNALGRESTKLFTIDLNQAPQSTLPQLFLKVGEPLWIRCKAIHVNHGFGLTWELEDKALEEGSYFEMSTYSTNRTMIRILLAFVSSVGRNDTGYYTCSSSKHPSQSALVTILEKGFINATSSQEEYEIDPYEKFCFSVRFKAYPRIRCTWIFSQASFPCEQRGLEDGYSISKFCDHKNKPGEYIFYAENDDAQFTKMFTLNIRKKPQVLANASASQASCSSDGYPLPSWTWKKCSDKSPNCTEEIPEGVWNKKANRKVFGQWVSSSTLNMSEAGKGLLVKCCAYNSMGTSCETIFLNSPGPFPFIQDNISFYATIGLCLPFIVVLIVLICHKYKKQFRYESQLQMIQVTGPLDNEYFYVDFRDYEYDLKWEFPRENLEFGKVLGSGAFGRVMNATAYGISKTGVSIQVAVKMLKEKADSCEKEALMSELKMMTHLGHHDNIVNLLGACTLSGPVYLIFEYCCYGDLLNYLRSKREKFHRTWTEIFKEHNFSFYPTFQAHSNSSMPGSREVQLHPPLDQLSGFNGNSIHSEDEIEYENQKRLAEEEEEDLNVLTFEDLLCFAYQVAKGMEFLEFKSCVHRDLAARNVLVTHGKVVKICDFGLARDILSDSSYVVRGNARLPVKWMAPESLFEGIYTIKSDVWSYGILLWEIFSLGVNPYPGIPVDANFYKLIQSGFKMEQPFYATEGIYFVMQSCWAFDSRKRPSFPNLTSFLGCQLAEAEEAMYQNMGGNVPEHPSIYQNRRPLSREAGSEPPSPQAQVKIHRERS
Kind of data set: Inhibition of FLT3 phosphorylation in mouse Ba/F3 FLT3-ITD cells assessed as reduction in phosphorylated FLT3 level measured after 12 hrs by western blot analysis. The data set is classed as cell-based.

In a further data set the test system is Monocyte. Kind of data set: Antiproliferative activity against human peripheral blood monocyte cells assessed as cell growth inhibition at 6 to 200 uM measured after 72 hrs by MTS assay. The data set is classed as toxicity, cell-based. The following applies: dose 6-200 µM.
The target in data set [11] is T2, Receptor-type tyrosine-protein kinase FLT3 (Mus musculus). Put plainly: Inhibition of FLT3 phosphorylation in mouse Ba/F3 FLT3-ITD cells assessed as reduction in phosphorylated FLT3 level at 0.3 to 100 nM by sandwich ELISA assay. The data set is classed as cell-based. Particulars: dose 0.3-100 nM. For orientation: ELISA stands for enzyme-linked immunosorbent assay.

Data set [12] deals with Receptor-type tyrosine-protein kinase FLT3 (Homo sapiens) (UniProt P36888). Kind of data set: Inhibition of FLT3 phosphorylation in human MOLM-13 cells assessed as reduction in phosphorylated FLT3 level at 0.3 to 100 nM by sandwich ELISA assay. The class given is cell-based. The following applies: dose 0.3-100 nM.
For data set [13] the target is unchanged. Kind of data set: Inhibition of FLT3 phosphorylation in human MV4-11 cells assessed as reduction in phosphorylated FLT3 level at 0.3 to 100 nM by sandwich ELISA assay. The class given is cell-based. The following applies: dose 0.3-100 nM.
For data set [14] the target is unchanged. Kind of data set: Inhibition of FLT3-mediated signalling pathway in human MV4-11 cells assessed as inhibition of MAPK phosphorylation at 50 nM by western blot analysis. The class given is cell-based. The following applies: TDE = time-dependent effect.
Data set [15] addresses T2, Receptor-type tyrosine-protein kinase FLT3 (Mus musculus). Kind of data set: Inhibition of FLT3-mediated signalling pathway in mouse Ba/F3 FLT3-ITD cells assessed as inhibition of MAPK phosphorylation at 50 nM by western blot analysis. The following applies: TDE = time-dependent effect. The class given is cell-based.
Data set [16] addresses Receptor-type tyrosine-protein kinase FLT3 (Homo sapiens) (UniProt P36888). Kind of data set: Inhibition of FLT3-mediated signalling pathway in human MV4-11 cells assessed as inhibition of STAT5 phosphorylation at 50 nM by western blot analysis. Particulars: TDE = time-dependent effect. The data set is classed as cell-based.
Data set [17] concerns the target T2, Receptor-type tyrosine-protein kinase FLT3 (Mus musculus). Kind of data set: Inhibition of FLT3-mediated signalling pathway in mouse Ba/F3 FLT3-ITD cells assessed as inhibition of STAT5 phosphorylation at 50 nM by western blot analysis. The data set is classed as cell-based.

Activity calls are given as the source filed them. The rule behind the calls is not given here. Bounds are passed on as bounds.

As for `OCCOc1ccc(CNc2ccc3c(c2)ncn3-c2ccccc2)cc1OCCO`, the half-maximal inhibitory concentration (IC50) was > 50000 nM in [1]; > 50000 nM in the data set on HL-60; 69.8 nM in the data set with MOLM-13; 77.8 nM in [3]; 167 nM in the data set with MV4-11. Also, the concentration for half-maximal inhibition (IC50) at 72 h in [2] is > 400 nM.

Turning to `CNC(=O)c1cc(Oc2ccc(NC(=O)Nc3ccc(Cl)c(C(F)(F)F)c3)cc2)ccn1` [SORAFENIB], the IC50 (in data set [1]; in the data set on HL-60) was 500 nM throughout.

Take `COc1ccc(CNc2ccc3c(c2)ncn3-c2ccccc2)cc1OCCO`: the IC50 in data set [1] was > 50000 nM; in the data set with HL-60 it was > 50000 nM; with MOLM-13 it was 78.2 nM; in data set [3] it was 75.4 nM; with MV4-11 it was 197 nM. The IC50 at 72 h in data set [2] was > 400 nM.

Consider `COc1ccc(CNc2ccc3c(c2)ncn3-c2ccccc2)cc1OC`, for which the IC50 in data set [1] was > 50000 nM; with HL-60, > 50000 nM; with MOLM-13, 113 nM; in data set [3], 94.8 nM; in the data set on MV4-11, 189 nM; in data set [4] it was > 1000 nM. The IC50 was > 1000 nM in data set [5], 451 nM in [6], 30 nM in data set [7] and 90 nM in [8]. The IC50 at 72 h in [2] is > 400 nM. The Activity was 1 nM in data set [9], 10 nM in [10] and “Not Active” in the data set on Monocyte. Also, the inhibition result in data set [11], in data set [12], in data set [13] and in [17] was “Active” in each case. In addition, the inhibition entry in [14], in data set [15] and in [16] was “Tde” throughout.

What is called IC50 is the concentration that inhibits the measured activity by half.

These data come from ChEMBL document CHEMBL5038665, “Identification of the Benzoimidazole Compound as a Selective FLT3 Inhibitor by Cell-Based High-Throughput Screening of a Diversity Library” (J Med Chem, 2022).
